# Reference: patent publication US20190307729A1, “ANTIMICROBIAL COMPOUNDS AND METHODS FOR USE THEREOF” (VERSITECH LIMITED, priority 2016, published 2019)
# Where two headings read alike, the source gives them in different places.
# Columns and labels:
# [1] = test system: E. coli; assay: Checkerboard assay with gentamicin; assay type: cell-based, Escherichia coli
# Experimental: Bacterial culture are topped and incubated overnight.
# [2] = test system: Vero cells; assay: Cytotoxicity assay (MTT); assay type: cell-based
# Experimental: MTT assays are performed for selected compounds on Vero cells according to product instructions.
# [3] = test system: P. aeruginosa; assay: Pigment formation (virulence suppression); assay type: cell-based, Pseudomonas aeruginosa
# [4] = test system: L. monocytogenes; assay: Checkerboard assay with gentamicin
# Experimental: (§1) The Checkerboard assay is performed in 96-well microtitre plates. […] The antibiotics are 2 fold serially diluted along the ordinate, the compounds are added along the abscissa to generate the checkerboard concentration gradients between the compounds and the antibiotics. Bacterial culture are topped and incubated overnight. Bacterial growth is monitored by the OD absorbance at 595 nm.
# (§2) The concentration tested range was from 500M to 0.98 μM. MICs higher than 500M were not determined.
# [5] = test system: E. faecalis; assay: Checkerboard assay with gentamicin
# Experimental: as §1, §2
# [6] = test system: S. pneumoniae; assay: Checkerboard assay with gentamicin
# Experimental: as §1, §2
# [7] = test system: S. aureus Mu3 strain; assay: Microdilution checkerboard assay of compound with aminoglycosides
# Experimental: as §1, §2
# [8] = test system: S. aureus Mu3; assay: Secondary screening of compound 13 analogues in combination with gentamicin (growth by OD 595 nm); conditions: for relative growth: relative to DMSO = 1
smiles,measurement,setting,value
O=C(O)CN1C(=O)C(=Cc2ccc(OCc3ccc(Cl)cc3)cc2)SC1=S [Compound 82],combined effect with gentamicin in inhibiting growth,[1],synergistic effect
same,combined effect with gentamicin in inhibiting growth,[1]; listed as compound 82,potentiating effect
same,cytotoxicity from Vero cell MTT assays,[2],low cytotoxicity
same,Cytotoxicity,[2]; MTT assays in Vero cells,Low
same,pigment formation,[3],repressing the pigment formation
same,combined effect with gentamicin in inhibiting growth,[4],potentiating effect
same,combined effect with gentamicin in inhibiting growth,[5],potentiating effect
same,combined effect with gentamicin in inhibiting growth,[6],potentiating effect
same,Combinatory effect with gentamicin,[7]; checkerboard,Potentiating
same,combined effect with gentamicin in inhibiting growth,[7]; gentamicin,good level of potentiating effect
same,combined effect with neamine in inhibiting growth,[7],retained its potentiating effect
same,combined effect with neamine in inhibiting growth,[7]; listed as compound 82,potentiating effect
same,20 μM + 200 μg/ml Gentamicin Growth inhibition Percentage,"[8]; 20 μM compound + 200 μg/ml gentamicin, S. aureus Mu3",91%
same,50 μM + 200 μg/ml Gentamicin Growth inhibition Percentage,"[8]; 50 μM compound + 200 μg/ml gentamicin, S. aureus Mu3",89%
same,relative growth,"[8]; [Cpd] 5 μM, BHI only (no gentamicin)",1.03
same,relative growth,"[8]; [Cpd] 5 μM, [Genta] 100 ug/ml",0.98
same,relative growth,"[8]; [Cpd] 5 μM, [Genta] 200 ug/ml",0.61
same,relative growth,"[8]; [Cpd] 20 μM, BHI only (no gentamicin)",0.78
same,relative growth,"[8]; [Cpd] 20 μM, [Genta] 100 ug/ml",*0.09
same,relative growth,"[8]; [Cpd] 20 μM, [Genta] 200 ug/ml",*0.09
same,relative growth,"[8]; [Cpd] 50 μM, BHI only (no gentamicin)",0.99
same,relative growth,"[8]; [Cpd] 50 μM, [Genta] 100 ug/ml",*0.13
same,relative growth,"[8]; [Cpd] 50 μM, [Genta] 200 ug/ml",*0.11
